Legend:
[1] = tested on: reserpine-induced blepharospasm; assay: prevention of reserpine-induced blepharospasm in mice (antidepressant activity); format: in vivo; settings: Mus musculus, po, 1 h, per os, 30 min before reserpine 2.4 mg/kg endoperitoneally, blepharospasm scored one hour after reserpine, read-out: BLEPH/ED50 (blepharospasm)
Protocol: (§1) The antidepressant activity was evaluated for example in mice on the basis of the prevention of reserpine-induced blepharospasm and hypothermia.

[2] = tested on: reserpine-induced hypothermia; assay: prevention of reserpine-induced hypothermia in mice (antidepressant activity); format: in vivo; settings: Mus musculus, po, 4 h, per os, 30 min before reserpine 2.4 mg/kg endoperitoneally, rectal temperature four hours after reserpine, read-out: HYPOTH/ED50 (hypothermia)
Protocol: as §1

CNC/C=C(\Oc1ccc(Cl)c(Cl)c1)c1ccccc1 [3-Cl 4-Cl H H H CH3 Z, α-(3,4-dichlorophenoxy)-α-phenyl-β-methylaminomethyl-ethylene] was tested. Which ED50 [1] did it give?
The ED50 was 1.2 mg/kg.

And the ED50 [2]?
The ED50 was 1.3 mg/kg.

CNC/C=C(/Oc1ccccc1Cl)c1ccccc1 [H 2-Cl H H H CH3 E, α-(2-chlorophenoxy)-α-phenyl-β-methylaminomethyl-ethylene] was tested. Which ED50 [1] did it give?
Its ED50 is 1.1 mg/kg.

What about the ED50 [2] of the same molecule?
The ED50 was 1.2 mg/kg.

What does the source list for CNC/C=C(\Oc1ccccc1Cl)c1ccccc1 [H 2-Cl H H H CH3 Z, α-(2-chlorophenoxy)-α-phenyl-β-methylaminomethyl-ethylene]?
ED50 [1]: 0.7 mg/kg; ED50 [2]: 0.2 mg/kg

Which ED50 [1] does the source give for CNC/C=C(/Oc1ccccc1)c1ccc2c(c1)OCO2 [H H 3,4-OCH2 O H CH3 E, α-phenoxy-α-(3,4-methylenedioxyphenyl)-β-methylaminomethyl-ethylene] here?
Its ED50 is 1 mg/kg.

What about the ED50 [2] of the same molecule?
Its ED50 is 1.4 mg/kg.

For CNC/C=C(\Oc1ccccc1)c1ccc2c(c1)OCO2 [H H 3,4-OCH2 O H CH3 Z, α-phenoxy-α-(3,4-methylenedioxyphenyl)-β-methylaminomethyl-ethylene], which ED50 [1] is on record?
Its ED50 is 2.2 mg/kg.

And the ED50 [2]?
The ED50 was 2.4 mg/kg.

For CN(C)C/C=C(\Oc1ccccc1)c1ccccc1 [H H H H CH3 CH3 Z, (Z)α-phenoxy-α-phenyl-β-dimethylaminomethyl-ethylene], which ED50 [1] is on record?
Its ED50 is 0.5 mg/kg.

What about the ED50 [2] of the same molecule?
Its ED50 is 1.4 mg/kg.

How did the ED50 [1] turn out when CNC/C=C(\Oc1ccccc1)c1ccccc1 [H H H H H CH3 Z, (Z)α-phenoxy-α-phenyl-β-methylaminomethyl-ethylene] was run?
Its ED50 is 0.8 mg/kg.

What about the ED50 [2] of the same molecule?
The ED50 was 0.8 mg/kg.

How did the ED50 [1] turn out when CN(C)CCCN1c2ccccc2CCc2ccccc21 [IMIPRAMINE, reference compound] was run?
Its ED50 is 24.1 mg/kg.

And the ED50 [2]?
Its ED50 is 10.2 mg/kg.
